Data on three compounds can be found in patent US20170087174A1, “COMBINATION THERAPY REGIMEN FOR TREATMENT OF HCV” (JANSSEN PHARMACEUTICALS, INC., priority 2015, published 2017).

One data set has as its target T1, BCRP (Homo sapiens, UniProt Q9UNQ0).
T1 sequence (Q9UNQ0 1-655): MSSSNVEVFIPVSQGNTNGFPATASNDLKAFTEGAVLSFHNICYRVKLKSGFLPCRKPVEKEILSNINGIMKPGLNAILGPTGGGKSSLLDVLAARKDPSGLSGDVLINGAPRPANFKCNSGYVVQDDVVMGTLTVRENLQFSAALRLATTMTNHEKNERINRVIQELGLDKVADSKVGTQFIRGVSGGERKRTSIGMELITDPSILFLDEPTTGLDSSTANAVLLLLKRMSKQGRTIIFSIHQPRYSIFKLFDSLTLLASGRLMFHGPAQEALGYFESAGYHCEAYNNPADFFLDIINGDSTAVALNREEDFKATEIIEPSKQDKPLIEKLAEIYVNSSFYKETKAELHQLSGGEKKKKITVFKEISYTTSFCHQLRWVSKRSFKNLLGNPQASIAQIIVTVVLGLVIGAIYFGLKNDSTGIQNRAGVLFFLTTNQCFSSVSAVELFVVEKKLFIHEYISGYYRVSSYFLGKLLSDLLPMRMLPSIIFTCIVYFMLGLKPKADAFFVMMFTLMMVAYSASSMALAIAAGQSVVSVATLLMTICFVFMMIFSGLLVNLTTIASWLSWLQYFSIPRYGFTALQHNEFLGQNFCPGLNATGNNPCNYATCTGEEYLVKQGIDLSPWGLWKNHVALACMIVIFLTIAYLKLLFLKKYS
Conditions: in vitro; cited from earlier work.

Another data set deals with T2, OATP1B3 (Homo sapiens, UniProt Q9NPD5).
T2 sequence (Q9NPD5 1-702): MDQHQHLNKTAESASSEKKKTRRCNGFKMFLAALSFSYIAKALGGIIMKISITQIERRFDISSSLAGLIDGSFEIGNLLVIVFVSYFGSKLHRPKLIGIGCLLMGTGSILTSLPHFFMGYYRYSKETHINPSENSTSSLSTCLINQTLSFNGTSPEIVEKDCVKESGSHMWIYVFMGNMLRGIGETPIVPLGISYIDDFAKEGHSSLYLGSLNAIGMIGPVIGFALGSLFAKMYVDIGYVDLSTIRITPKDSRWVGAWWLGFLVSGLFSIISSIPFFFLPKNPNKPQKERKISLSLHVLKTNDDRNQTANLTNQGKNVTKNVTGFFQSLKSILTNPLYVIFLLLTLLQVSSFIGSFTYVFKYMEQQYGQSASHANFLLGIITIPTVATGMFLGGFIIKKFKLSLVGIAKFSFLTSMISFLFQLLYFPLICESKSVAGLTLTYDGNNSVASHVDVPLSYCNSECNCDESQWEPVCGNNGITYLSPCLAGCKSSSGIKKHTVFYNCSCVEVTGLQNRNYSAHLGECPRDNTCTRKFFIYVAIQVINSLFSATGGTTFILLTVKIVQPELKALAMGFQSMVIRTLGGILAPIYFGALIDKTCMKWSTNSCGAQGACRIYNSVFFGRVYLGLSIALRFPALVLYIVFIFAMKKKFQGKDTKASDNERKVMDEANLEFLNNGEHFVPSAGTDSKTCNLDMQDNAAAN
The conditions noted are these: in vitro; cited from earlier work.

The next data set relates to CYP3A4. The data set can be described thus: CYP3A4 induction. The conditions noted are these: up to 10 μM. The data set is classed as in vitro ADME.
Data set [1] relates to Digoxin (a pgp-substrate). Conditions: SMV co-administered with Digoxin; cited from earlier work.
Data set [2] has as its system Rosuvastatin (substrate of OATPs & BCRP). Conditions: SMV co-administered with Rosuvastatin; cited from earlier work.
Another data set concerns the target T3, CYP2C8 (Homo sapiens, UniProt P10632).
T3 sequence (P10632 1-490): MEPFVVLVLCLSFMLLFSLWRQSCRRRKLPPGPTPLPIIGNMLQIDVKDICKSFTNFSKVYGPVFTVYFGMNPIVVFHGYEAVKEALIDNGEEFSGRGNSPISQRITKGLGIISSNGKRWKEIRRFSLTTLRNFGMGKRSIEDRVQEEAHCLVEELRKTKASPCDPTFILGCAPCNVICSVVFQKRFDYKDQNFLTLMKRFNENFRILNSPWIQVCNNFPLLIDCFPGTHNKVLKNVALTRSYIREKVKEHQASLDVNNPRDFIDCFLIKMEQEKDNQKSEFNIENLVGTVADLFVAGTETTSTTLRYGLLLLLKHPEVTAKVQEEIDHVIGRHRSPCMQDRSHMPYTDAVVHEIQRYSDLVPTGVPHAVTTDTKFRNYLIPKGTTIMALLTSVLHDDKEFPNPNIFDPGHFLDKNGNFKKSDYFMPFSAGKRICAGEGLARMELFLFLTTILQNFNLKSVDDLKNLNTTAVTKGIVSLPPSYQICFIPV
Put plainly: CYP2C8 inhibition. The data set is classed as in vitro ADME. Conditions: up to 10 μM.

Another data set relates to CYP3A4/5. Put plainly: CYP3A4/5 inhibition. The data set is classed as in vitro ADME. The conditions noted are these: up to 10 μM.
Another data set deals with T4, 1A2 (Homo sapiens, UniProt P05177).
T4 sequence (P05177 1-516): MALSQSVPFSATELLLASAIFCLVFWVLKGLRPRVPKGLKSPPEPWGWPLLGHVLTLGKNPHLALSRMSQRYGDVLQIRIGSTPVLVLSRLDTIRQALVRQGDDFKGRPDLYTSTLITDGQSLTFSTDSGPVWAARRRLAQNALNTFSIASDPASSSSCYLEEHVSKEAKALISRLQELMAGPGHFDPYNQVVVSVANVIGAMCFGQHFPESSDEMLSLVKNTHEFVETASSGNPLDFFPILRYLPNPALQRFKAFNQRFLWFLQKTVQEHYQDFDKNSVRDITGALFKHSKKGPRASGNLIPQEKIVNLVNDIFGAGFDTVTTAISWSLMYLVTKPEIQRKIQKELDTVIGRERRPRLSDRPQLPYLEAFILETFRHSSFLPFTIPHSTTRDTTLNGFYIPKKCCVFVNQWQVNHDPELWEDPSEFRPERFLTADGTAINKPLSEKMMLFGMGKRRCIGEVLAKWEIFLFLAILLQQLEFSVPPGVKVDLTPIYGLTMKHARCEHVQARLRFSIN
Put plainly: CYP1A2 inhibition. The data set is classed as in vitro ADME. The conditions noted are these: up to 10 μM.

The target of another data set is MRP2/3 (Homo sapiens, UniProt O15438). The conditions noted are these: in vitro; cited from earlier work.
Sequence of MRP2/3 (O15438 whole entry): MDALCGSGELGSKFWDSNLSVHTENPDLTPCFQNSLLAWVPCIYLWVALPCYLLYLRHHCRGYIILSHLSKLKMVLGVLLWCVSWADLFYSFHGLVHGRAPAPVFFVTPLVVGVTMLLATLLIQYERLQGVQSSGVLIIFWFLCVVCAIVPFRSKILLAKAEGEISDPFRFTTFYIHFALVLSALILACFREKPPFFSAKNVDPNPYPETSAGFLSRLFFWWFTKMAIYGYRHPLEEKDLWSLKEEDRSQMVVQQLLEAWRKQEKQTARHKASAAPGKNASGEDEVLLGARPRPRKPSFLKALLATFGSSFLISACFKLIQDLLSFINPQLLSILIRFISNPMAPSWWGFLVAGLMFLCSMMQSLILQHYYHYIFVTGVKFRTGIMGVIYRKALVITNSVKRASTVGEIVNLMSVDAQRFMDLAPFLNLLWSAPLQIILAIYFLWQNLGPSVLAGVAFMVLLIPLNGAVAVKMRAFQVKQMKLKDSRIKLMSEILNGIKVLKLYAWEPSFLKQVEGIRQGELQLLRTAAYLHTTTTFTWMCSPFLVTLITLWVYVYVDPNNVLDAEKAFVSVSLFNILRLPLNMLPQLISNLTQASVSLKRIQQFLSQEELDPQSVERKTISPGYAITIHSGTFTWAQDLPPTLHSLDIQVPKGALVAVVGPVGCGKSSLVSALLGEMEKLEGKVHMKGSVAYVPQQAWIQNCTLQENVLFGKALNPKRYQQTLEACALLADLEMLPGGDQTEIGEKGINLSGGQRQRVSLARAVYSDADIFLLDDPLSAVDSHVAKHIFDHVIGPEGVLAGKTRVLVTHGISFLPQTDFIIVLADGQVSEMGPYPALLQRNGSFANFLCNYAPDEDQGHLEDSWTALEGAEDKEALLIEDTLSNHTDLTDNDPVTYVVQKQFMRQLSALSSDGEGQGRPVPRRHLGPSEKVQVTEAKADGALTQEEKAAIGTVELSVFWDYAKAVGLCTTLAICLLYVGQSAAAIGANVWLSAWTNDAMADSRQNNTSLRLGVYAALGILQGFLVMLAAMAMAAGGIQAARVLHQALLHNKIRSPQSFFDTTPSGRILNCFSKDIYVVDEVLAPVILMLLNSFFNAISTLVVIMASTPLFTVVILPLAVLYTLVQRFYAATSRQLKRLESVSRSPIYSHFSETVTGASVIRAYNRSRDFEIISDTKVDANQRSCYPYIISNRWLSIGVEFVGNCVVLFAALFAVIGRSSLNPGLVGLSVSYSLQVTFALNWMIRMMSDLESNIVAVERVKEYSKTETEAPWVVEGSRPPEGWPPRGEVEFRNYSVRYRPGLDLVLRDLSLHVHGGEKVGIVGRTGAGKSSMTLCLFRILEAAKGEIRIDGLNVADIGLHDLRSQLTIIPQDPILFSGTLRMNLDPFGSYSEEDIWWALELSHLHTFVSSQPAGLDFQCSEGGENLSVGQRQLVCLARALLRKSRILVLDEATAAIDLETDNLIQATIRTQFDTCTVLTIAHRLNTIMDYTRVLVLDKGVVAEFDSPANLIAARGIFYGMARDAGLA

With `CC(C)OC(=O)[C@H](C)N[P@](=O)(OC[C@@]1(F)O[C@@H](n2ccc(=O)[nH]c2=O)[C@](C)(O)[C@@H]1O)Oc1ccccc1` [Compound (III), isopropyl ((S)-(((2S,3S,4R,5R)-5-(2,4-dioxo-3,4-dihydropyrimidin-1 (2H)-yl)-2-fluoro-3,4-dihydroxy-4-methyltetrahydrofuran-2-yl)methoxy)(phenoxy)phosphoryl)-L-alaninate], the “BCRP inhibition (in words)” value at BCRP was “no in vitro inhibition”. Also, on OATP1B3, the “OATP1B3 inhibition (in words)” value was “no in vitro inhibition”.
As to `COc1ccc2c(O[C@@H]3C[C@H]4C(=O)N[C@]5(C(=O)NS(=O)(=O)C6CC6)C[C@H]5/C=C\CCCCN(C)C(=O)[C@@H]4C3)cc(-c3nc(C(C)C)cs3)nc2c1C` [SMV, Simeprevir, reference compound], the “induction of CYP3A4” value in the data set with CYP3A4 was “no induction”. Also, the “increase in exposure of Digoxin” value in [1] is 35%. Also, in [2], the “increase in Rosuvastatin exposure” value is reported as 3 fold.
As to `COC(=O)N[C@H](C(=O)N1[C@H](c2nc3cc(-c4cc5ccc4CCc4ccc(c(-c6ccc7[nH]c([C@@H]8C[C@@H]9CCCC[C@@H]9N8C(=O)[C@@H](NC(=O)OC)C(C)C)nc7c6)c4)CC5)ccc3[nH]2)C[C@@H]2CCCC[C@@H]21)C(C)C` [ODV, Odalasvir], on CYP2C8, the “effect on CYP2C8” value is listed as “limited effect”. Also, the “inhibition of CYP3A4/5” value in the data set on CYP3A4/5 is on record as “no inhibition”. Further, on 1A2, the “inhibition of 1A2” value is listed as “no inhibition”. The “MRP3 inhibition (in words)” value on MRP2/3 is on record as “no inhibition”. The “BCRP inhibition (in words)” value at BCRP is “no inhibition”. For the same compound, at OATP1B3, the “OATP1B3 inhibition (in words)” value was “no inhibition”.
